# From paper PMC8188212, “Multi‐Arm PEG/Peptidomimetic Conjugate Inhibitors of DR6/APP Interaction Block Hematogenous Tumor Cell Extravasation” (Advanced Science, 2021)
# Square brackets hold non-standard residues; d marks the D form. Side chains are listed from the residue outwards. Ends that are not written are not given here. Peptide text beside a SMILES is read from it. * marks the point of attachment. maleimide = maleimide: 4-arm PEG5k maleimide reacting with the C-terminal Cys thiol; Cbz = O=C(OCc1ccccc1)*; CH2F = FC*
# T1: death receptor 6 (DR6) protein (UniProt O75509 42-349, labelled with RED-tris-NTA second-generation dye)
# T1 construct: death receptor 6 (DR6), bought recombinant protein; source: bought: Sino Biology, Inc. (Shanghai, China)
# T1 sequence (looked up): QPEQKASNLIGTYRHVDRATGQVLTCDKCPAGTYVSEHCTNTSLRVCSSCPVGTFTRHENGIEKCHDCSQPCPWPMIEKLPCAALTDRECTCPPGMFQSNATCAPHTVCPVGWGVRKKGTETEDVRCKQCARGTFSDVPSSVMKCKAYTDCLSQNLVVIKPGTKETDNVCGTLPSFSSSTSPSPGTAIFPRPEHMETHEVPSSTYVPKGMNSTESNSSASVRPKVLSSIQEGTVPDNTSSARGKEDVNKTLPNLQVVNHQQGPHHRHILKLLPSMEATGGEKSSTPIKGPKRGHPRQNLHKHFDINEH
# T2: DR6 protein (Homo sapiens, UniProt O75509)
# T2 construct: purchased Sino Biology, Inc. (Shanghai, China)
# T2 sequence (O75509 42-655): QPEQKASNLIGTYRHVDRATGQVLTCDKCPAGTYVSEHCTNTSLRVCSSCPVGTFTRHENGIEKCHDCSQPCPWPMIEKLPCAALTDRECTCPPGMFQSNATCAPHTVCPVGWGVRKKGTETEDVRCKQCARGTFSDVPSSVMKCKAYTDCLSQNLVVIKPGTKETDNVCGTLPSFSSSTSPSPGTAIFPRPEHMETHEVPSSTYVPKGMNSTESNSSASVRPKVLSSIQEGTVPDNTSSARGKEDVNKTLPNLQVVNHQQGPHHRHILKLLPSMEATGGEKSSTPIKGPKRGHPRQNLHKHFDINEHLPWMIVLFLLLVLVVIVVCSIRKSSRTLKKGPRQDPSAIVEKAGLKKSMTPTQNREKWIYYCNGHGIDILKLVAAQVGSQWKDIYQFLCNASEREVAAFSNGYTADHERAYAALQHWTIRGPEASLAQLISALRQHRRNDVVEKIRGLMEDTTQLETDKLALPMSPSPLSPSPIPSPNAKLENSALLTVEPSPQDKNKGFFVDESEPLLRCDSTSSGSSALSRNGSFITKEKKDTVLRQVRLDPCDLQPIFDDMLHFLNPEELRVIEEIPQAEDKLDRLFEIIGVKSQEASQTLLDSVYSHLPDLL
# T3: death receptor 6 (DR6) protein (UniProt O75509 42-349, labelled with RED-tris-NTA second-generation dye)
# T3 construct: death receptor 6 (DR6), bought recombinant protein; It is probably a soluble extracellular construct, but that is a surmise; source: bought: Sino Biology
# T3 sequence (looked up): T1 sequence (looked up)
# B1: AHP-13 (peptide)
# peptide: SHTDTNQ
# notes: heptapeptide selected from a random phage display library against DR6; source: synthetic peptide (SPPS)
# B2: AHP-01 (peptide)
# peptide: WTLSINS
# notes: as for B1
# B3: AHP-24 (peptide)
# peptide: NHQRLLP
# notes: as for B1
# B4: AHP-03 (peptide)
# peptide: YLPAPLP
# notes: as for B1
# B5: AHP-10 (peptide)
# peptide: NGSTHER
# notes: as for B1
# B6: AHP-23 (peptide)
# peptide: GGLSMTR
# notes: as for B1
# B7: AHP-05 (peptide)
# peptide: YYSGNNL
# notes: as for B1
# B8: PEG‐tAHP‐DRI (tetra‐(D‐retro‐inverso isomer of AHP‐12) substitued 4‐arm PEG5k) (other)
# peptide: [dP][dT][dT][dA][dD][dI][dT]C([maleimide-4‑arm PEG5k])
# modifications: also: four peptides on one 4-arm PEG5k
# notes: additional Cys residue at the C-terminal, coupled to the maleimide of the PEG arm; Four peptide chains on one 4-arm PEG5k, not a polypeptide oligomer; also called PEG‐tAHP‐12; PEGylated tetrameric AHP‐DRI‐12; source: synthetic peptide conjugated to 4-arm PEG5k maleimide, dialysed
# B9: AHP‐12 (peptide)
# peptide: TIDATTP
# notes: heptapeptide selected from a random heptapeptide M13 phage display library against DR6; also called AHP-12 (TIDATTP); source: synthetic peptide (SPPS, HPLC purified)
# B10: AHP‐DRI‐12 (D‐retro‐inverso isomer of AHP‐12) (peptide)
# peptide: [dP][dT][dT][dA][dD][dI][dT]
# notes: Peptidomimetic made of D-amino acids; source: synthetic peptide (SPPS, HPLC purified)
# Target: T1, death receptor 6 (DR6) protein
# Assay: MST; DR6 protein labelled with RED-tris-NTA second-generation dye, final 50 x 10^-9 M; peptide prepared at 20 x 10^-6 M, diluted serially 1:1 in PBS-T over 12 tubes and mixed with an equal volume of labelled DR6; NanoTemper Monolith NT.015
# Details: both partners purified
row,Molecule,Kd
1,B1,457 ± 11.6 nM

# Target: hERG potassium channel (Homo sapiens, UniProt Q12809)
# Sequence (Q12809 whole entry): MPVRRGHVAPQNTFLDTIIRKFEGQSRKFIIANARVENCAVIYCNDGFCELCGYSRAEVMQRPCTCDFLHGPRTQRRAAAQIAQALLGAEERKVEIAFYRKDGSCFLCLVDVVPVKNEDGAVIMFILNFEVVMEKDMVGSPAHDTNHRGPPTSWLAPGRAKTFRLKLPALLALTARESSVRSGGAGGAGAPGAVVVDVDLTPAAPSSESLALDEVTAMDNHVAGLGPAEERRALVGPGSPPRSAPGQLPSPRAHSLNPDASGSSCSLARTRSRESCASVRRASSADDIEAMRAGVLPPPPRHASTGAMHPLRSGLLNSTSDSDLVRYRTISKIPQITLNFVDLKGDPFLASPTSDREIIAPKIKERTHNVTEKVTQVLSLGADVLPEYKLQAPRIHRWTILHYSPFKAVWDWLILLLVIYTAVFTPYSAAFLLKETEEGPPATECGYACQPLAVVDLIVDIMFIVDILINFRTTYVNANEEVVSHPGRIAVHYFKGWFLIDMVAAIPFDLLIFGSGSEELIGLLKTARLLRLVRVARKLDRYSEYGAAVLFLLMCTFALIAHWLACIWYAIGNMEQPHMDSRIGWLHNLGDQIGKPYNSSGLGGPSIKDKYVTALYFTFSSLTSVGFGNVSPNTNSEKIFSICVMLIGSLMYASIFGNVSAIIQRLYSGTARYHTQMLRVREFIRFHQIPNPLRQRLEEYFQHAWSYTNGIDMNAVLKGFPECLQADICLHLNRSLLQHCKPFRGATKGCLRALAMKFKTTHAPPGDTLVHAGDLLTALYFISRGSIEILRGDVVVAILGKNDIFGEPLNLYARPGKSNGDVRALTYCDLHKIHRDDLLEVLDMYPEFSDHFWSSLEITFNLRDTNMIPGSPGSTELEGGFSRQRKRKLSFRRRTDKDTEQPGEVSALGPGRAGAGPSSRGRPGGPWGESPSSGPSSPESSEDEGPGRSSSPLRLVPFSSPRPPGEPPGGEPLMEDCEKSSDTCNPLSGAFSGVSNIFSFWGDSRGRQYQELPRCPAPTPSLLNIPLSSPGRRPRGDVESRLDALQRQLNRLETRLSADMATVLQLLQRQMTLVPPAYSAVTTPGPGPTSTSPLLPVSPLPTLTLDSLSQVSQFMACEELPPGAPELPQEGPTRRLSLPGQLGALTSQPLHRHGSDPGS
# Assay: Whole-cell patch clamp recording of hERG current
# Type: cell-based
# Details: cisapride as positive control
# Procedure: In addition, some common adverse effects suffered by frequently used medications were also evaluated. The whole‐cell patch clamp recording technique was used to record the whole‐cell hERG‐potassium to measure the cardiac toxicity of peptidomimetic agents on hERG potassium channel by utilizing cisapride as positive control (Figure 6E; Figure S10, Supporting Information). […] Meanwhile, the blood biochemical indexes of ligand‐treated mice sacrificed on day 2 or day 15 were tested to examine the influences of peptidomimetic agents to liver and kidney (Figure S11, Supporting Information).
row,Molecule,inhibitory effect on hERG channels
1,CC[C@@H](C)[C@@H](NC(=O)[C@@H](CC(=O)O)NC(=O)[C@@H](C)NC(=O)[C@H](NC(=O)[C@H](NC(=O)[C@H]1CCCN1)[C@H](C)O)[C@H](C)O)C(=O)N[C@@H](C(=O)O)[C@H](C)O [AHP-DRI-12] (H-[dP][dT][dT][dA][dD][dI][dT]-OH),no significant inhibitory effect

# Target: T2, DR6 protein
# Assay: KD of DR6-targeting peptides for binding to DR6 protein by MST
# Details: Tables S1 and S2, average of three independent experiments in triplicate, NB = No binding, read-out: KD ± SEM
# Procedure: For labeling DR6 protein with Red‐tris‐NTA second‐generation dye, equal volume of DR6 protein (200 × 10^–9 M) and dye (100 × 10^–9 M) were mixed. The solution was incubated for 30 min at room temperature and centrifuged for 10 min at 4 ℃ and 15 000 × g. The DR6 protein was labeled and ready for the binding assay. Prepare 25 µL of the DR6‐targeting peptides at 20 × 10^–6 M and add 10 µL of the PBS‐T into the PCR tubes 2–12. Transfer 20 µL DR6‐targeting peptides into the PCR tube 1 and then transfer 10 µL of the DR6‐targeting peptides from tube 1 to tube 2 with a pipette and mix by pipetting up and down multiple times. Transfer 10 µL to tube 3 and mix. Repeat the procedure for tube 4–12. Add 10 µL of labeled protein to each tube (1–12) and mix by pipetting. The final DR6 protein concentration was 50× 10^−9 M. Load the capillaries and measure the samples by NanoTemper Monolith NT.015.^[ ^51 , ^52 ^]
row,Molecule,Kd
1,CC(C)C[C@@H](NC(=O)[C@H]1CCCN1C(=O)[C@@H](C)NC(=O)[C@H]1CCCN1C(=O)[C@@H](CC(C)C)NC(=O)[C@H](N)Cc1ccc(O)cc1)C(=O)N1CCC[C@@H]1C(=O)O [AHP-D-03] (H-[dY][dL][dP][dA][dP][dL][dP]-OH),4734 ± 8.8 nM
2,CC[C@@H](C)[C@@H](NC(=O)[C@H](N)[C@H](C)O)C(=O)N[C@H](CC(=O)O)C(=O)N[C@H](C)C(=O)N[C@@H](C(=O)N[C@@H](C(=O)N1CCC[C@@H]1C(=O)O)[C@H](C)O)[C@H](C)O [AHP-D-12] (H-[dT][dI][dD][dA][dT][dT][dP]-OH),55100 ± 27600 nM
3,C[C@H](O)[C@@H](NC(=O)[C@@H](CC(=O)O)NC(=O)[C@H](NC(=O)[C@@H](Cc1c[nH]cn1)NC(=O)[C@H](N)CO)[C@H](C)O)C(=O)N[C@H](CC(N)=O)C(=O)N[C@H](CCC(N)=O)C(=O)O [AHP-D-13] (H-[dS][dH][dT][dD][dT][dN][dQ]-OH),3174 ± 8.8 nM
4,CC(C)C[C@@H](NC(=O)[C@H]1CCCN1C(=O)[C@@H](C)NC(=O)[C@H]1CCCN1C(=O)[C@@H](CC(C)C)NC(=O)[C@H]1CCCN1)C(=O)N[C@H](Cc1ccc(O)cc1)C(=O)O [AHP-DRI-03] (H-[dP][dL][dP][dA][dP][dL][dY]-OH),1219 ± 7.02 nM
5,C[C@H](O)[C@@H](NC(=O)[C@@H](CC(=O)O)NC(=O)[C@H](NC(=O)[C@@H](CC(N)=O)NC(=O)[C@H](N)CCC(N)=O)[C@H](C)O)C(=O)N[C@H](Cc1c[nH]cn1)C(=O)N[C@H](CO)C(=O)O [AHP-DRI-13] (H-[dQ][dN][dT][dD][dT][dH][dS]-OH),862.7 ± 6.59 nM
6,AFMYSLP [AHP-14],457 ± 11.6 nM
7,AGHFSLW [AHP-21],> 10000 nM
8,ANLLYES [AHP-04],> 10000 nM
9,FQFRLQS [AHP-02],> 10000 nM
10,GFSHYFP [AHP-11],> 10000 nM
11,HSTAPQL [AHP-08],> 10000 nM
12,HSYPYTQ [AHP-17],> 10000 nM
13,KFLQVTN [AHP-16],> 10000 nM
14,KLGPVCP [AHP-06],> 10000 nM
15,KLVPEPS [AHP-09],> 10000 nM
16,LMTTKSD [AHP-22],> 10000 nM
17,LPRSPLA [AHP-20],> 10000 nM
18,MPPFRHD [AHP-19],> 10000 nM
19,TIPKYER [AHP-15],> 10000 nM
20,TTYMPKM [AHP-18],> 10000 nM
21,YSLHASP [AHP-07],> 10000 nM

# Tested on: TCs over HUVECs monolayer
# Assay: Transendothelial migration of TCs over HUVEC monolayer
# Type: cell-based, human
# Details: AHP-DRI-12 and PEG-tAHP-DRI 1 × 10^−6 M (AHP-DRI-12), Nec-1 30 × 10^–6 M, zVAD 100 × 10^–6 M; 48 h; compared with control; n = 3
# Procedure: HUVECs (1 × 10^5) in DMEM were added into 24‐well plate transwell upper chambers and the medium was changed every 2 days. Using the EVOM resistance tester, the transendothelial resistance was measured daily. When the TEER resistance value was >200 Ωcm^2, the cells grew into a monolayer of tight connection. 2 × 10^5 GFP‐TCs were added into upper chambers. One milliliter DMEM containing 10% FBS was added into lower chambers overnight. AHP‐DRI‐12 and PEG‐tAHP‐DRI (1 ×10^–6 M AHP‐DRI‐12), Nec‐1 (30 × 10^–6 M), and zVAD (100 × 10^–6 M) were added in upper chambers, respectively. After incubation for 48 h, cells in lower chambers were observed by fluorescence microscope.^[ ^56 ^]
row,Molecule,TCs transendothelial migration
1,"COC(=O)C[C@H](NC(=O)[C@H](C)NC(=O)[C@@H](NC(=O)OCc1ccccc1)C(C)C)C(=O)CF [zVAD, z‐VAD‐fmk, reference compound] (Cbz-Val-Ala-Asp(OMe)-CH2F)",increased number of migrated TCs

# Target: T1, death receptor 6 (DR6) protein
# Assay: MST; DR6 protein labelled with RED-tris-NTA second-generation dye, final 50 x 10^-9 M; peptide prepared at 20 x 10^-6 M, diluted serially 1:1 in PBS-T over 12 tubes and mixed with an equal volume of labelled DR6; NanoTemper Monolith NT.015
# Details: both partners purified
# Remark: another data set of the same source
row,Molecule,Kd
1,B2,1150 nM
2,B3,1090 nM
3,B1,1150 nM
4,B4,688 nM
5,B5,528 nM
6,B6,4460 nM
7,B7,1100 nM

# Tested on: not listed separately
# Assay: Pharmacokinetic study after intravenous injection
# Type: in vivo
# Details: SD rats, FITC-labeled, blood samples 0.5-72 h, microplate reader, n = 3
# Procedure: To investigate the pharmacokinetic profile of AHP‐DRI‐12 and PEG‐tAHP‐DRI, SD rats were intravenously injected with FITC‐labeled AHP‐DRI‐12 and PEG‐tAHP‐DRI and blood samples were collected at 0.5, 1, 2, 4, 6, 24, 30, 48, 54, and 72 h. The DR6‐targeting peptide level of blood samples was measured by a microplate reader.
row,Molecule,half-life (T1/2)
1,CC[C@@H](C)[C@@H](NC(=O)[C@@H](CC(=O)O)NC(=O)[C@@H](C)NC(=O)[C@H](NC(=O)[C@H](NC(=O)[C@H]1CCCN1)[C@H](C)O)[C@H](C)O)C(=O)N[C@@H](C(=O)O)[C@H](C)O [AHP-DRI-12] (H-[dP][dT][dT][dA][dD][dI][dT]-OH),7.8 h

# Tested on: not listed separately
# Assay: In vivo safety analysis in healthy mice
# Set-up: species or system C57BL/6 mice
# Details: healthy mice, intravenous, 0.2 µg g^–1 AHP-DRI-12; sacrificed day 2 or day 15
# Procedure: For evaluating the toxicity of peptides in vivo, 6 week old healthy mice were intravenously injected with AHP‐DRI‐12 and PEG‐tAHP‐DRI (0.2 µg g^–1 AHP‐DRI‐12). After 2 and 15 days, mice were sacrificed and serum samples were collected for the biochemical analysis (ALT, AST, BRU, and URE). Tissue samples from various organs were collected for tissue sections. The tissue sections were analyzed by H&E staining and immunohistochemistry analysis.
row,Molecule,"damage to liver or kidney, blood biochemical indexes (ALT, AST, BRU, URE)"
1,CC[C@@H](C)[C@@H](NC(=O)[C@@H](CC(=O)O)NC(=O)[C@@H](C)NC(=O)[C@H](NC(=O)[C@H](NC(=O)[C@H]1CCCN1)[C@H](C)O)[C@H](C)O)C(=O)N[C@@H](C(=O)O)[C@H](C)O [AHP-DRI-12] (H-[dP][dT][dT][dA][dD][dI][dT]-OH),could not cause any damage to liver or kidney

# Target: T3, death receptor 6 (DR6) protein
# Assay: MST; DR6 protein labelled with RED-tris-NTA second-generation dye, final 50 × 10^-9 M; peptides prepared at 20 × 10^-6 M and diluted serially 1:1 over 12 tubes in PBS-T; NanoTemper Monolith NT.015
# Details: both partners purified
row,Molecule,Kd
1,B8,51.1 nM
2,B9,322 nM
3,B10,225 nM
